Assay results from PubChem BioAssay (NCI).
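These data come from cells grown in 96-well plates and exposed to compound for 48 hours at five concentrations. Here, GI50 denotes the concentration required for 50% inhibition of growth. TGI: total growth inhibition.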

system: HCC-2998 colon; assay: DTP human tumour cell line panel, 48 h

Row | Compound | GI50 [µM] | TGI [µM]
1 | CC1=C[C@H]2c3c(c(O)c(O)c4oc(-c5ccccc5)cc(=O)c34)[C@H](c3cc(O)c(O)c4oc(-c5ccccc5)cc(=O)c34)[C@H]2C(C)(C)C1 | 1.56 | 4.65
2 | O=c1cc(NC2CCN(CCCc3ccccc3)CC2)c2cc(Cl)ccc2o1 | 13 | 27.3
3 | CC(=O)N[C@H]1CSSC[C@@H](C(N)=O)NC(=O)[C@H](C(C)C)NC(=O)[C@H](C)NC(=O)[C@H](Cc2cnc[nH]2)NC1=O | > 100 | > 100
4 | Nc1nc(F)nc2c1ncn2C1OC(CO)C(O)C1O (stereo not drawn) | 5.09 | > 100
5 | CCn1c(SCc2ccc(C)cc2)nnc1-c1nn(-c2ccc(Cl)cc2Cl)c(-c2ccc(Cl)cc2)c1C | 2.35 | 13.2
6 | Br[C](Br)(Br)[Hg][c]1ccccc1 | 14.4 | 27.7
7 | COc1ccc(CC2NCCc3cc(OC)c(OC)cc32)cc1Br (stereo not drawn) | – | 34.6
8 | CCOc1cc(C(C)(C)C)ccc1C1=N[C@@](C)(c2ccc(Cl)cc2)[C@@](C)(c2ccc(Cl)cc2)N1C(=O)N1CCN(CCCS(C)(=O)=O)CC1 | 2.51 | 6.95

system: MALME-3M melanoma; assay: DTP human tumour cell line panel, 48 h

Row | Compound | GI50 [µM] | TGI [µM]
9 | CC1=C[C@H]2c3c(c(O)c(O)c4oc(-c5ccccc5)cc(=O)c34)[C@H](c3cc(O)c(O)c4oc(-c5ccccc5)cc(=O)c34)[C@H]2C(C)(C)C1 | 1.57 | 7.76
10 | O=c1cc(NC2CCN(CCCc3ccccc3)CC2)c2cc(Cl)ccc2o1 | 11.2 | 25.4
11 | CC(=O)N[C@H]1CSSC[C@@H](C(N)=O)NC(=O)[C@H](C(C)C)NC(=O)[C@H](C)NC(=O)[C@H](Cc2cnc[nH]2)NC1=O | > 100 | > 100
12 | Nc1nc(F)nc2c1ncn2C1OC(CO)C(O)C1O (stereo not drawn) | 28.1 | > 100
13 | CCn1c(SCc2ccc(C)cc2)nnc1-c1nn(-c2ccc(Cl)cc2Cl)c(-c2ccc(Cl)cc2)c1C | 2.15 | 8.88
14 | Br[C](Br)(Br)[Hg][c]1ccccc1 | 1.31 | 3.99
15 | COc1ccc(CC2NCCc3cc(OC)c(OC)cc32)cc1Br (stereo not drawn) | – | 34.3
16 | CCOc1cc(C(C)(C)C)ccc1C1=N[C@@](C)(c2ccc(Cl)cc2)[C@@](C)(c2ccc(Cl)cc2)N1C(=O)N1CCN(CCCS(C)(=O)=O)CC1 | 0.274 | 11.3

system: OVCAR-8 ovarian; assay: DTP human tumour cell line panel, 48 h

Row | Compound | GI50 [µM] | TGI [µM]
17 | CC1=C[C@H]2c3c(c(O)c(O)c4oc(-c5ccccc5)cc(=O)c34)[C@H](c3cc(O)c(O)c4oc(-c5ccccc5)cc(=O)c34)[C@H]2C(C)(C)C1 | 0.68 | > 75
18 | O=c1cc(NC2CCN(CCCc3ccccc3)CC2)c2cc(Cl)ccc2o1 | 12.1 | 27.2
19 | CC(=O)N[C@H]1CSSC[C@@H](C(N)=O)NC(=O)[C@H](C(C)C)NC(=O)[C@H](C)NC(=O)[C@H](Cc2cnc[nH]2)NC1=O | > 100 | > 100
20 | Nc1nc(F)nc2c1ncn2C1OC(CO)C(O)C1O (stereo not drawn) | 3.64 | > 100
21 | CCn1c(SCc2ccc(C)cc2)nnc1-c1nn(-c2ccc(Cl)cc2Cl)c(-c2ccc(Cl)cc2)c1C | 2.12 | 10.7
22 | Br[C](Br)(Br)[Hg][c]1ccccc1 | 12.9 | 18.4
23 | COc1ccc(CC2NCCc3cc(OC)c(OC)cc32)cc1Br (stereo not drawn) | – | > 100
24 | CCOc1cc(C(C)(C)C)ccc1C1=N[C@@](C)(c2ccc(Cl)cc2)[C@@](C)(c2ccc(Cl)cc2)N1C(=O)N1CCN(CCCS(C)(=O)=O)CC1 | 12 | > 100

system: DU-145 prostate; assay: DTP human tumour cell line panel, 48 h

Row | Compound | GI50 [µM] | TGI [µM]
25 | CC1=C[C@H]2c3c(c(O)c(O)c4oc(-c5ccccc5)cc(=O)c34)[C@H](c3cc(O)c(O)c4oc(-c5ccccc5)cc(=O)c34)[C@H]2C(C)(C)C1 | 0.408 | > 75
26 | O=c1cc(NC2CCN(CCCc3ccccc3)CC2)c2cc(Cl)ccc2o1 | 15.8 | 29.3
27 | CC(=O)N[C@H]1CSSC[C@@H](C(N)=O)NC(=O)[C@H](C(C)C)NC(=O)[C@H](C)NC(=O)[C@H](Cc2cnc[nH]2)NC1=O | > 100 | > 100
28 | Nc1nc(F)nc2c1ncn2C1OC(CO)C(O)C1O (stereo not drawn) | 19.7 | > 100
29 | CCn1c(SCc2ccc(C)cc2)nnc1-c1nn(-c2ccc(Cl)cc2Cl)c(-c2ccc(Cl)cc2)c1C | 3.3 | 13.8
30 | Br[C](Br)(Br)[Hg][c]1ccccc1 | 18.1 | 35
31 | COc1ccc(CC2NCCc3cc(OC)c(OC)cc32)cc1Br (stereo not drawn) | – | > 100
32 | CCOc1cc(C(C)(C)C)ccc1C1=N[C@@](C)(c2ccc(Cl)cc2)[C@@](C)(c2ccc(Cl)cc2)N1C(=O)N1CCN(CCCS(C)(=O)=O)CC1 | 11 | 25.6

system: MDA-MB-435; assay: DTP human tumour cell line panel, 48 h

Row | Compound | GI50 [µM] | TGI [µM]
33 | CC1=C[C@H]2c3c(c(O)c(O)c4oc(-c5ccccc5)cc(=O)c34)[C@H](c3cc(O)c(O)c4oc(-c5ccccc5)cc(=O)c34)[C@H]2C(C)(C)C1 | 0.435 | 5.74
34 | O=c1cc(NC2CCN(CCCc3ccccc3)CC2)c2cc(Cl)ccc2o1 | 5.26 | 18.1
35 | CC(=O)N[C@H]1CSSC[C@@H](C(N)=O)NC(=O)[C@H](C(C)C)NC(=O)[C@H](C)NC(=O)[C@H](Cc2cnc[nH]2)NC1=O | > 100 | > 100
36 | Nc1nc(F)nc2c1ncn2C1OC(CO)C(O)C1O (stereo not drawn) | 17.1 | > 100
37 | CCn1c(SCc2ccc(C)cc2)nnc1-c1nn(-c2ccc(Cl)cc2Cl)c(-c2ccc(Cl)cc2)c1C | 2.85 | 11.5
38 | Br[C](Br)(Br)[Hg][c]1ccccc1 | 16.1 | 30
39 | COc1ccc(CC2NCCc3cc(OC)c(OC)cc32)cc1Br (stereo not drawn) | – | 60
